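Cells were grown in 96-well plates and exposed to each compound for 48 hours at five concentrations; endpoints were interpolated linearly between bracketing concentrations, or set to the highest concentration if not reached. GI50 = concentration required for 50% inhibition of growth.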 Activity calls are given as the source filed them. Rule as the data show it: active = GI50 up to about 1.1 µM and inactive = higher.
Assays:
Test in all cases: NCI tumour cell line growth inhibition, 48 h
[1] = system: A498
[2] = system: M14
[3] = system: 786-0
[4] = system: MDA-N
[5] = system: UACC-257
[6] = system: SNB-19
[7] = system: U-251
[8] = system: SF-268
[9] = system: SF-295
[10] = system: MDA-MB-231
[11] = system: NCI-H460
[12] = system: SK-OV-3
[13] = system: SF-539
[14] = system: SN12C
[15] = system: MDA-MB-435
[16] = system: NCI/ADR-RES
[17] = system: T47D
[18] = system: OVCAR-3
[19] = system: NCI-H522
[20] = system: OVCAR-5

## COC1(OC)C[C@H](C)[C@@]23O[C@]24C2=CC(=O)C=CC2=N[C@H]3C#C/C=C\C#C[C@]14O
[1]
  GI50: 0.91 µM (active)
[2]
  GI50: 0.53 µM (active)
[3]
  GI50: 0.0675 µM (active)
[4]
  GI50: 1.08 µM (active)
[5]
  GI50: 1.49 µM (inactive)
[6]
  GI50: 1.55 µM (inactive)
[7]
  GI50: 0.805 µM (active)
[8]
  GI50: 0.711 µM (active)
[9]
  GI50: 1.64 µM (inactive)
[10]
  GI50: 0.621 µM (active)
[11]
  GI50: 0.344 µM (active)
[12]
  GI50: 1.36 µM (inactive)
[13]
  GI50: 0.634 µM (active)
[14]
  GI50: 0.973 µM (active)
[15]
  GI50: 0.546 µM (active)
[16]
  GI50: 1.59 µM (inactive)
[17]
  GI50: 0.427 µM (active)
[18]
  GI50: 0.431 µM (active)
[19]
  GI50: 0.0469 µM (active)
[20]
  GI50: 0.39 µM (active)

## O=S(=O)(O)C(CO)c1ccccc1.O=S(=O)(O)Cc1ccccc1 (stereo not given)
[1]
  GI50: > 100 µM (inactive)
[2]
  GI50: > 100 µM (inactive)
[3]
  GI50: > 100 µM (inactive)
[4]
  GI50: > 100 µM (inactive)
[5]
  GI50: > 100 µM (inactive)
[6]
  GI50: > 100 µM (inactive)
[7]
  GI50: > 100 µM (inactive)
[8]
  GI50: > 100 µM (inactive)
[9]
  GI50: > 100 µM (inactive)
[10]
  GI50: > 100 µM (inactive)
[11]
  GI50: > 100 µM (inactive)
[12]
  GI50: > 100 µM (inactive)
[13]
  GI50: > 100 µM (inactive)
[14]
  GI50: > 100 µM (inactive)
[15]
  GI50: > 100 µM (inactive)
[16]
  GI50: > 100 µM (inactive)
[17]
  GI50: > 100 µM (inactive)
[18]
  GI50: > 100 µM (inactive)
[19]
  GI50: > 100 µM (inactive)
[20]
  GI50: > 100 µM (inactive)

## O=S1(=O)N=C(SCc2c[nH]c3ccccc23)N(c2ccccc2)c2ccncc21
[1]
  GI50: 27 µM (inactive)
[2]
  GI50: > 100 µM (inactive)
[3]
  GI50: 25.1 µM (inactive)
[4]
  GI50: > 100 µM (inactive)
[5]
  GI50: > 100 µM (inactive)
[6]
  GI50: > 100 µM (inactive)
[7]
  GI50: 87.5 µM (inactive)
[8]
  GI50: 50.9 µM (inactive)
[9]
  GI50: > 100 µM (inactive)
[10]
  GI50: > 100 µM (inactive)
[11]
  GI50: > 100 µM (inactive)
[12]
  GI50: > 100 µM (inactive)
[13]
  GI50: 22.8 µM (inactive)
[14]
  GI50: 74.6 µM (inactive)
[15]
  GI50: > 100 µM (inactive)
[16]
  GI50: > 100 µM (inactive)
[17]
  GI50: 21.3 µM (inactive)
[18]
  GI50: > 100 µM (inactive)
[19]
  GI50: 37.5 µM (inactive)
[20]
  GI50: 94.2 µM (inactive)

Source: ChEMBL document CHEMBL1201862, “PubChem BioAssay data set” (2004)
